# From publication PMC5241705 (ACS Infectious Diseases, 2016)
# “Also recorded” adds a separate entry of the source.
# What was measured:
# [1] = test system: Mtb SRMV2.6 attB::guaB2^Y487C; assay type: cell-based, Mycobacterium tuberculosis
# [2] = test system: Mtb H37Rv attB::guaB2^Y487C; assay type: cell-based, Mycobacterium tuberculosis
# [3] = molecular target: Mtb GuaB2^Y487C (Mycobacterium tuberculosis, UniProt P9WKI7, Y487C); assay type: biochemical
smiles,measurement,setting,value
"O=C(C1CCCCC1)N1CCN(S(=O)(=O)c2cccc3cnccc23)CC1 [VCC234718, N-(5-Isoquinolinylsulfonyl)-N’-cyclohexanoyl-piperazine]",MIC90,[1],>200 µM
same,MIC90,[2],>100 µM
same,inhibition of Mtb GuaB2^Y487C,[3],inactive; also recorded: refractory to inhibition
